{
  "source": "ChEMBL document CHEMBL5154845",
  "about": "“Dual-acting antitumor agents targeting the A2A adenosine receptor and histone deacetylases: Design and synthesis of 4-(furan-2-yl)-1H-pyrazolo[3,4-d]pyrimidin-6-amine derivatives” (Eur J Med Chem, 2022)",
  "key": {"MC38 [1]": {"test_system": "MC38", "assay": "Inhibition of HDAC in mouse MC38 cells assessed as increase in H4 acetylation at 0.1 to 5 uM measured by western blot analysis", "assay_type": "cell-based", "settings": "dose 0.1-5 µM"}, "Adenosine receptor A1": {"biological_target": "T1, Adenosine receptor A1 (Homo sapiens, UniProt P30542)", "T1 sequence (P30542 whole entry)": "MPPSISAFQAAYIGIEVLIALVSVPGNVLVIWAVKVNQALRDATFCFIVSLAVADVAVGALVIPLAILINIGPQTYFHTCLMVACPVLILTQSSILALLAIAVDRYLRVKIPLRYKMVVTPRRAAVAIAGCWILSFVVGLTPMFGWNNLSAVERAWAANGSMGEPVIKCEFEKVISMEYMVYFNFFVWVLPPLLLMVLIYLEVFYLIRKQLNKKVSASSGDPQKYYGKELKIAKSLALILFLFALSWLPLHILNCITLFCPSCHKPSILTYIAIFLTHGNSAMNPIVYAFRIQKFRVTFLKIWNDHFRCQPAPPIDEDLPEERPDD", "assay": "Displacement of [3H]DPCPX from human A1AR incubated for 60 mins by scintillation counter analysis"}, "[2]": {"assay": "AUC (0 to t) in male ICR mouse at 5 mg/kg, iv measured up to 24 hrs by LC-MS/MS analysis", "assay_type": "ADME, organism-based", "design": "time < 24 hrs, dose 5 mg/kg, route iv", "settings": "in vivo"}, "[3]": {"assay": "Half-life in male ICR mouse at 5 mg/kg, iv measured up to 24 hrs by LC-MS/MS analysis", "assay_type": "ADME, organism-based", "settings": "in vivo"}, "[4]": {"assay": "Bioavailability in male ICR mouse at 20 mg/kg,ip measured up to 24 hrs by LC-MS/MS analysis", "assay_type": "ADME, organism-based", "settings": "in vivo"}, "[5]": {"assay": "Volume of distribution at steady state in male ICR mouse at 5 mg/kg, iv measured up to 24 hrs by LC-MS/MS analysis", "assay_type": "ADME, organism-based", "settings": "in vivo"}, "[6]": {"assay": "Cmax in male ICR mouse at 20 mg/kg, po measured up to 24 hrs by LC-MS/MS analysis", "assay_type": "ADME, organism-based", "design": "time < 24 hrs, dose 20 mg/kg, route po", "settings": "in vivo"}, "Histone deacetylase 2": {"biological_target": "Histone deacetylase 2 (Homo sapiens, UniProt Q92769)", "sequence (Q92769 whole entry)": "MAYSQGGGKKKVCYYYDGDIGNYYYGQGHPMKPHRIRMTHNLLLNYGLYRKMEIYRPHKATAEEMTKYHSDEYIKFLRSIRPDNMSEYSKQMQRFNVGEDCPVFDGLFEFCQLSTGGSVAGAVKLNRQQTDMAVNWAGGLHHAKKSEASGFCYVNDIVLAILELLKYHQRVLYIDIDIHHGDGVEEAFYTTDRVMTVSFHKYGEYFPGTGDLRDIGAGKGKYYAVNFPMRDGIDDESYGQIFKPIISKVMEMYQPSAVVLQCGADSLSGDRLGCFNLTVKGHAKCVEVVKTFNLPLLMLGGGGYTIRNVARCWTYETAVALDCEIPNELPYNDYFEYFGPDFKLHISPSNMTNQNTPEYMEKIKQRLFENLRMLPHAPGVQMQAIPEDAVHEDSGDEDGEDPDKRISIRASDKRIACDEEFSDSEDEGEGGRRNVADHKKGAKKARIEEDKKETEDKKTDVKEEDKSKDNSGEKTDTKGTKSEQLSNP", "assay": "Inhibition of HDAC2 (unknown origin) using trypsin and LGK(Ac)-AMC as substrates incubated for 1 hr and measured by fluorescence assay"}, "MC-38 [7]": {"test_system": "MC-38", "assay": "Antitumor activity against mouse MC38 cells xenografted in C57 mouse assessed as tumor growth inhibition at 150 mg/kg, po administered once a day", "assay_type": "functional", "settings": "read-out: TGI"}, "[8]": {"assay": "Mean residence time in male ICR mouse at 20 mg/kg, po measured up to 24 hrs by LC-MS/MS analysis", "assay_type": "ADME, organism-based", "settings": "in vivo"}, "[9]": {"assay": "Cmax in male ICR mouse at 5 mg/kg, iv measured up to 24 hrs by LC-MS/MS analysis", "assay_type": "ADME, organism-based", "design": "dose 5 mg/kg, time < 24 hrs, route iv", "settings": "in vivo"}, "[10]": {"assay": "Tmax in male ICR mouse at 20 mg/kg, ip measured up to 24 hrs by LC-MS/MS analysis", "assay_type": "ADME, organism-based", "settings": "in vivo"}, "CT26": {"test_system": "CT26", "assay": "Antiproliferative activity against mouse CT26 cells after 72 hrs by CCK-8 assay", "assay_type": "functional"}, "[11]": {"assay": "Mean residence time in male ICR mouse at 5 mg/kg, iv measured up to 24 hrs by LC-MS/MS analysis", "assay_type": "ADME, organism-based", "settings": "in vivo"}, "Adenosine receptor A2a": {"biological_target": "Adenosine receptor A2a (Homo sapiens, UniProt P29274)", "sequence (P29274 whole entry)": "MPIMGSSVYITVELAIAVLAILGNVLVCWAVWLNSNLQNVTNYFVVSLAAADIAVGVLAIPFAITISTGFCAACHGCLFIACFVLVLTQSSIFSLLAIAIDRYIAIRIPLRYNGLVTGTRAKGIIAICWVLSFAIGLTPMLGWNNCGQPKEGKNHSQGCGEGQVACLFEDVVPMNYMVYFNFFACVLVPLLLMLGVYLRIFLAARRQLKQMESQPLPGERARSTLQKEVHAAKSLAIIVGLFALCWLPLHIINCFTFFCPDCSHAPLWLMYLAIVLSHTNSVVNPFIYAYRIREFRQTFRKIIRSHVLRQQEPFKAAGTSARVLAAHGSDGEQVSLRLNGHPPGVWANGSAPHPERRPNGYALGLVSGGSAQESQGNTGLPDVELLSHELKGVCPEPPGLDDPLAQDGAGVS", "assay": "Displacement of [3H][…] from human A2AAR incubated for 60 mins by scintillation counter analysis"}, "[12]": {"assay": "Oral bioavailability in male ICR mouse at 20 mg/kg measured up to 24 hrs by LC-MS/MS analysis", "assay_type": "ADME, organism-based", "settings": "in vivo"}, "[13]": {"assay": "AUC (0 to t) in male ICR mouse at 20 mg/kg, ip measured up to 24 hrs by LC-MS/MS analysis", "assay_type": "ADME, organism-based", "design": "dose 20 mg/kg, time < 24 hrs, route ip", "settings": "in vivo"}, "[14]": {"assay": "Tmax in male ICR mouse at 20 mg/kg, po measured up to 24 hrs by LC-MS/MS analysis", "assay_type": "ADME, organism-based", "settings": "in vivo"}, "[15]": {"assay": "Half-life in male ICR mouse at 20 mg/kg, ip measured up to 24 hrs by LC-MS/MS analysis", "assay_type": "ADME, organism-based", "settings": "in vivo"}, "MC-38 [16]": {"test_system": "MC-38", "assay": "Antitumor activity against mouse MC38 cells xenografted in C57 mouse assessed as tumor growth inhibition at 30 mg/kg, ip administered twice a day", "assay_type": "functional", "settings": "read-out: TGI"}, "[17]": {"assay": "Elimination rate constant in male ICR mouse at 20 mg/kg, ip measured up to 24 hrs by LC-MS/MS analysis", "assay_type": "ADME, organism-based", "settings": "in vivo"}, "MC-38 [18]": {"test_system": "MC-38", "assay": "Antiproliferative activity against mouse MC38 cells after 72 hrs by CCK-8 assay", "assay_type": "functional"}, "[19]": {"assay": "Initial plasma concentration in male ICR mouse at 5 mg/kg, iv measured up to 24 hrs by LC-MS/MS analysis", "assay_type": "ADME, organism-based"}, "MC-38 [20]": {"test_system": "MC-38", "assay": "Antitumor activity against mouse MC38 cells xenografted in C57 mouse assessed as tumor growth inhibition at 60 mg/kg, ip administered twice a day", "assay_type": "functional", "settings": "read-out: TGI"}, "Histone deacetylase 3": {"biological_target": "Histone deacetylase 3 (Homo sapiens, UniProt O15379)", "sequence (O15379 whole entry)": "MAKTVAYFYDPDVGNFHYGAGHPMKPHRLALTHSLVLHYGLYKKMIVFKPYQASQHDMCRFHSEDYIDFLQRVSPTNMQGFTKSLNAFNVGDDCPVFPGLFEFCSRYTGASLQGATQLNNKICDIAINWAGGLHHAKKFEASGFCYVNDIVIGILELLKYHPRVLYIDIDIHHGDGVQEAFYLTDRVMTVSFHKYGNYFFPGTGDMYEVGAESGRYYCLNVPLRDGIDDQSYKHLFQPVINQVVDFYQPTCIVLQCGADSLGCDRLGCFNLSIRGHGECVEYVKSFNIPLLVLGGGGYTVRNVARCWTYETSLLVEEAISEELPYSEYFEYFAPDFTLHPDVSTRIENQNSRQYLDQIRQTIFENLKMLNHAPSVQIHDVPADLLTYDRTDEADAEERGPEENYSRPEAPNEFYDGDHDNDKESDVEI", "assay": "Inhibition of HDAC3 (unknown origin) using trypsin and LGK(Ac)-AMC as substrates incubated for 1 hr and measured by fluorescence assay"}, "Histone deacetylase 1": {"biological_target": "Histone deacetylase 1 (Homo sapiens, UniProt Q13547)", "sequence (Q13547 whole entry)": "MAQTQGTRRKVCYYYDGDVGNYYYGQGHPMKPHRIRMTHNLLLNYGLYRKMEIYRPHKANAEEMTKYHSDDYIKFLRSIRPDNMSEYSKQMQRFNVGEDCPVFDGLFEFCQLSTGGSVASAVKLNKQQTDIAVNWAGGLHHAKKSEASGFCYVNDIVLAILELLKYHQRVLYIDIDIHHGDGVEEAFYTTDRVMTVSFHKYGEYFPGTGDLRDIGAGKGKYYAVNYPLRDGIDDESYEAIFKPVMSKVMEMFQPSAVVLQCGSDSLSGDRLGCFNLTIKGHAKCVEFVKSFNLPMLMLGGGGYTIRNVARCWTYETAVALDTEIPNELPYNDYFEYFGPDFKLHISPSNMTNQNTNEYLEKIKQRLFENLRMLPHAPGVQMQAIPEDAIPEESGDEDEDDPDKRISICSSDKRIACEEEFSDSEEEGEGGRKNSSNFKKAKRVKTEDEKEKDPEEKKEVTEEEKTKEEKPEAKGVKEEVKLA", "assay": "Inhibition of HDAC1 (unknown origin) using trypsin and LGK(Ac)-AMC as substrates incubated for 1 hr and measured by fluorescence assay"}, "[21]": {"assay": "Elimination rate constant in male ICR mouse at 5 mg/kg, iv measured up to 24 hrs by LC-MS/MS analysis", "assay_type": "ADME, organism-based", "settings": "in vivo"}, "Histone deacetylase 8": {"biological_target": "T2, Histone deacetylase 8 (Homo sapiens, UniProt Q9BY41)", "T2 sequence (Q9BY41 whole entry)": "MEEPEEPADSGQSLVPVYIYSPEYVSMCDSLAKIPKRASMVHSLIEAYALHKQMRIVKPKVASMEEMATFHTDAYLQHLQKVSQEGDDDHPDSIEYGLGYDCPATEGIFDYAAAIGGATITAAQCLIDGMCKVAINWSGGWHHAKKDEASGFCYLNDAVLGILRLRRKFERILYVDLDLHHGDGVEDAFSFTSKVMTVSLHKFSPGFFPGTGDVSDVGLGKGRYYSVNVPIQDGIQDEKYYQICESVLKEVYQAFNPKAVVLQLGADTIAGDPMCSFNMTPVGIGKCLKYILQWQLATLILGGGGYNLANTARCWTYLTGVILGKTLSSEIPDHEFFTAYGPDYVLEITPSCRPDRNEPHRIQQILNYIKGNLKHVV", "assay": "Inhibition of HDAC8 (unknown origin) using trypsin and LGK(Ac)-AMC as substrates incubated for 1 hr and measured by fluorescence assay"}, "[22]": {"assay": "Half-life in male ICR mouse at 20 mg/kg, po measured up to 24 hrs by LC-MS/MS analysis", "assay_type": "ADME, organism-based", "settings": "in vivo"}, "[23]": {"assay": "Mean residence time in male ICR mouse at 20 mg/kg, ip measured up to 24 hrs by LC-MS/MS analysis", "assay_type": "ADME, organism-based", "settings": "in vivo"}, "MC38 [24]": {"test_system": "MC38", "assay": "Inhibition of HDAC in mouse MC38 cells assessed as increase in H3 acetylation at 0.1 to 5 uM measured by western blot analysis", "assay_type": "cell-based", "settings": "dose 0.1-5 µM"}},
  "note": "Active and inactive are the calls of the source. The rule behind the calls is not given here.",
  "data": [
    {"smiles": "Nc1nc(-c2ccco2)c2cnn(CCc3ccc(C(=O)Nc4ccccc4N)cc3)c2n1", "values": [
      {"measurement": "inhibition", "setting": "MC38 [1]", "result": "Active"},
      {"measurement": "Ki", "setting": "Adenosine receptor A1", "result": 503, "unit": "nM"},
      {"measurement": "AUCt", "setting": "[2]", "result": 2098, "unit": "ng·h/mL"},
      {"measurement": "half-life", "setting": "[3]", "result": 23.3, "unit": "min"},
      {"measurement": "bioavailability", "setting": "[4]", "result": 119, "unit": "%"},
      {"measurement": "Vdss", "setting": "[5]", "result": 0.92, "unit": "L/kg"},
      {"measurement": "Cmax", "setting": "[6]", "result": 3420, "unit": "ng/mL"},
      {"measurement": "IC50", "setting": "Histone deacetylase 2", "result": 240, "unit": "nM"},
      {"measurement": "inhibition in vivo at 150 mg/kg", "setting": "MC-38 [7]", "result": 26, "unit": "%"},
      {"measurement": "MRT", "setting": "[8]", "result": 77.4, "unit": "min"},
      {"measurement": "Cmax", "setting": "[9]", "result": 4700, "unit": "ng/mL"},
      {"measurement": "Tmax", "setting": "[10]", "result": 15, "unit": "min"},
      {"measurement": "GI50", "setting": "CT26", "result": 380, "unit": "nM"},
      {"measurement": "MRT", "setting": "[11]", "result": 23.4, "unit": "min"},
      {"measurement": "Ki", "setting": "Adenosine receptor A2a", "result": 163, "unit": "nM"},
      {"measurement": "bioavailability", "setting": "[12]", "result": 43, "unit": "%"},
      {"measurement": "AUC(0-t) at 24 h", "setting": "[13]", "result": 10000, "unit": "ng·h/mL"},
      {"measurement": "Tmax", "setting": "[14]", "result": 20, "unit": "min"},
      {"measurement": "half-life", "setting": "[15]", "result": 49.8, "unit": "min"},
      {"measurement": "inhibition in vivo at 30 mg/kg", "setting": "MC-38 [16]", "result": 68, "unit": "%"},
      {"measurement": "k el at 24 h", "setting": "[17]", "result": 0.000234, "unit": "s⁻¹"},
      {"measurement": "GI50", "setting": "MC-38 [18]", "result": 290, "unit": "nM"},
      {"measurement": "C0 at 24 h", "setting": "[19]", "result": 6500, "unit": "ng/mL"},
      {"measurement": "inhibition in vivo at 60 mg/kg", "setting": "MC-38 [20]", "result": 85, "unit": "%"},
      {"measurement": "IC50", "setting": "Histone deacetylase 3", "result": 444, "unit": "nM"},
      {"measurement": "IC50", "setting": "Histone deacetylase 1", "result": 145, "unit": "nM"},
      {"measurement": "k el at 24 h", "setting": "[21]", "result": 0.000506, "unit": "s⁻¹"},
      {"measurement": "IC50", "setting": "Histone deacetylase 8", "result": "> 10000", "unit": "nM"},
      {"measurement": "half-life", "setting": "[22]", "result": 134, "unit": "min"},
      {"measurement": "MRT", "setting": "[23]", "result": 57, "unit": "min"},
      {"measurement": "inhibition", "setting": "MC38 [24]", "result": "Active"}
    ]}
  ]
}
